This is an account of results in US4925943A, “2-(2-aminobenzyl or 2-nitrobenzyl)-1,2,3,4-tetrahydroisoquinoline derivatives” (priority 1986, dated 1990).

Each structure is given as a SMILES string. Read-outs that look alike come from different tables or passages of the source.

The target of assay [1] is α1 adrenergic receptors of rat cerebral cortex. Kind of assay: [3H] prazosine binding, rat cerebral cortex (α1). The arrangement: species or system rat (male Wistar). Conditions: for Ki: read-out: Prazosine [^3 H] Ki nM, rat cerebral cortex, 0.2 nM [3H] prazosine, 25° C., 30 minutes, at least three experiments ± standard deviation. As for the experimental part: (§1) The preparation of the cerebral cortex homogenates is made starting from male Wistar rats, age 12 weeks. After decapitation, the brains are rapidly removed and dissected. The tissues are homogenized with the aid of an ultra-turrax in 50 mM of a pH 7.5 Tris-HCl buffer and centrifuged at 40,000 g for ten minutes. The centrifugate is dissolved in buffer and recentrifuged in the same way. All of the operations are carried out at a temperature less than 4° C. The final centrifugate is homogenized in the incubation buffer maintained in melting ice (tris-HCl 50 mM pH 7.5) so as to obtain a final dilution of the cortical tissue of 1/100 (by volume), which corresponds to about 0.5 mg of protein per ml.
(§2) These filters are rinsed 4 times with 5 ml of incubation buffer preserved in ice. The radioactivity retained on the filters is counted by liquid scintillation. The non-specific fixation of the radioactive ligand is evaluated in the presence of 10 μM phentolamine.
(§3) Starting from the inhibition curves for the specific fixation of a ligand to its receptor by increasing quantities of a non-radioactive product, the inhibition constant (Ki) of this product is determined.

In assay [2] the target is T1, α2 adrenergic receptors of rat cerebral cortex (Rattus norvegicus, UniProt P22909).
T1 construct: The preparation of the cerebral cortex homogenates is made starting from male Wistar rats; from tissue; host or cells: cerebral cortex homogenate of male Wistar rats
T1 sequence (P22909 1-465): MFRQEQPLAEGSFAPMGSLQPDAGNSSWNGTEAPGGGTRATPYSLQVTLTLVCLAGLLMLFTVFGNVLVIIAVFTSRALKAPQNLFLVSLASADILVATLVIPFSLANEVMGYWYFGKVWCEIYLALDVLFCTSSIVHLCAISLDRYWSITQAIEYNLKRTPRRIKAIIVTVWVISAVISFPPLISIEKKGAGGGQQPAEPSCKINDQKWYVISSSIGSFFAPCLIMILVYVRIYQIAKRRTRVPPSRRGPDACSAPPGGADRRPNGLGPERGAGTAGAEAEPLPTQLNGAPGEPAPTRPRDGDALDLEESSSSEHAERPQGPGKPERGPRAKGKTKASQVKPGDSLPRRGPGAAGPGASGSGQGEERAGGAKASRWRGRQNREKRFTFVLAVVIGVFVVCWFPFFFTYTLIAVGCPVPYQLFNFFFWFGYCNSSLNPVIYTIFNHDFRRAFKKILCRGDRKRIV
Kind of assay: [3H] yohimbine binding, rat cerebral cortex (α2). The arrangement: species or system rat (male Wistar). As for the experimental part:
as §1, §2, §3

Assay [3] concerns D2 dopaminergic receptor. Kind of assay: binding sites of [3H] dexetimide.
The test system of assay [4] is serotonergic receptor. Kind of assay: binding sites of [3H] ketanserine.
The test system of assay [5] is H1 histaminic receptor. Kind of assay: binding sites of [3H] pyrilamine.
For assay [6], the system named is binding sites of [^3 H] nitrendipine (calcium influx blocking agent). Kind of assay: binding sites of [3H] nitrendipine.
For assay [7], the system named is α2 adrenergic receptors of rat aorta. Kind of assay: antagonism of BHT 920 induced contraction of isolated rat aorta. The arrangement: species or system rat (female Wistar). As for the experimental part: The antagonism of ISK7 relative to the contracture-causing effect of BHT 920 (2-amino-6-allyl-5,6,7,8-tetrahydro[4,5-d]thiazolo-4H-azepinedihydrochloride) (α2 adrenergic agonist) on rat aorta is taken as an example. There is antagonism when a substance is capable of partially or totally opposing the effects of an agonistic substance.
Rapidly removed female Wistar rat aorta is received in a Krebs solution containing: NaCl 120 mM; KCl 4.8 mM; NaHCO3 25 mM; glucose 10 mM; CaCl2 1.25 mM; MgSO4 1.19 mM; KH2 PO4 1.14 mM. The aorta, freed of connective and adipose tissue, is cut in hoops of a length of about 1 mm. Each hoop is installed in a 10 ml organ cell containing Krebs liquid at 37°, oxygenated with an oxygen-carbon dioxide mixture (95% O2 and 5% CO2) and connected to an isometric sensor of tradename Statham and made by Gould Inc., Medical Product Division, under a base tension of 2 g. Recording of the contractions is effected with a polygraph of tradename Beckman and made by Beckman. After a rest period (1 h) interrupted by washings, a first effect-concentration relation is established by studying the contraction provoked by addition in the cell of increasing concentrations of BHT 920. After a new rest period interrupted by washings (30 min.) where the organ returns to the initial tension, the antagonist is placed in contact with the vessel for 10 minutes; the a new effect-concentration relation with BHT 920 is established. In preliminary experiments, it was established that the first and second effect-concentration relation of the agonist are identical in the absence of antagonist. […] The displacement increases with ISK concentration. […] The apparent dissociation constant of ISK7, calculated from experiments illustrated in FIG. 1 for a competitive antagonism according to Furchgott R. F. (in Catecholamines, ed. by Blaschko and Muscholl, Springer-Verlag, Berlin, 1972, pp. 283-335) is 1.2×10^-7 M for the two concentrations employed. […]

The target in assay [8] is T2, α1 adrenergic receptors of isolated rat deferent canal (Rattus norvegicus, UniProt P43140).
T2 construct: The deferent canals of 12-week old male Wistar rats are removed; from tissue; host or cells: isolated vas deferens (deferent canal) of male Wistar rats
T2 sequence (P43140 1-466): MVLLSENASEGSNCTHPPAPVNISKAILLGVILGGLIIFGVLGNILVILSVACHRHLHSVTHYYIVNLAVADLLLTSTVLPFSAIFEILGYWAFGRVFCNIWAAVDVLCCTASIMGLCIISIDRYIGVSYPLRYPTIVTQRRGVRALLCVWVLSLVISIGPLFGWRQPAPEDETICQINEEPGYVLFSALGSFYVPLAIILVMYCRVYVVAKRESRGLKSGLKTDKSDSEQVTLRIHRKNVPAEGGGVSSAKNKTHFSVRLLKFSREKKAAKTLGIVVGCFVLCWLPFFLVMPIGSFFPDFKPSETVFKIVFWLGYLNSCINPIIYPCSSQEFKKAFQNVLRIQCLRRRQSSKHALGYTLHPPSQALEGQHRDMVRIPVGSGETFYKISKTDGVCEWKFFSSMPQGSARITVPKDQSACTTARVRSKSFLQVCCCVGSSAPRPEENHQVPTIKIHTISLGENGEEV
Kind of assay: antagonism with phenylephrine induced contraction of rat deferent canal. The arrangement: species or system rat (male Wistar). Conditions: for effect on effect-concentration curves of phenylephrine: FIG. 3; for slope of Schild relation, antagonism with phenylephrine: rat deferent canal. As for the experimental part: The deferent canals of 12-week old male Wistar rats are removed.
Each organ is connected to an isometric sensor of tradename Statham, made by Gould Inc., Medical Product Division, under a base tension of 0.5 g. Contractions are recorded by a polygraph of tradename Beckman, made by Beckman. To characterize the α2 blocking effect, the deferent canal is electrically stimulated by rectangular impulses of 2 msec duration, 30 volts, with a frequency of 0.2 Hz delivered by a stimulator of tradename Bioscience (Stimulator 100), made by Palmer. After a rest period of 20-30 minutes, increasing concentrations of clonidine are added to the survival medium over 2 minutes. This permits establishing the relation between the effect and concentration of clonidine. After generating two successive, cumulative effect-concentration curves separated by a rest period of 20 minutes, the antagonist is placed in contact with the isolated organ for 10 minutes and a new effect-concentration relationship is determined.
To characterize the α1 blocking effect, the organ is stimulated by phenylephrine. […] After a rest period of 30 minutes, increasing concentrations of phenylephrine are added in the organ cell over 30 seconds. A first effect-concentration relationship is established. After a washing and a new rest period of 15 mins. wherein the organ returns to the initial tension, a second effect-concentration relationship is effected. The antagonist is placed in contact with the tissue returned to its base tension after washing and a third effect-concentration relationship is determined. […] The apparent dissociation constant (KD), calculated according to Furchgott, is the relation between the molar concentration of antagonist and the relation of equiactive doses of agonist (in the presence and absence of antagonist) -1.

Assay [9] has as its target T3, α2 adrenergic receptors of isolated rat deferent canal (Rattus norvegicus, UniProt P22909).
T3 sequence (P22909 1-465): T1 sequence (P22909 1-465)
Kind of assay: antagonism with clonidine on electrically stimulated rat deferent canal.
Method: Each organ is connected to an isometric sensor of tradename Statham, made by Gould Inc., Medical Product Division, under a base tension of 0.5 g. Contractions are recorded by a polygraph of tradename Beckman, made by Beckman. To characterize the α2 blocking effect, the deferent canal is electrically stimulated by rectangular impulses of 2 msec duration, 30 volts, with a frequency of 0.2 Hz delivered by a stimulator of tradename Bioscience (Stimulator 100), made by Palmer. After a rest period of 20-30 minutes, increasing concentrations of clonidine are added to the survival medium over 2 minutes. This permits establishing the relation between the effect and concentration of clonidine. After generating two successive, cumulative effect-concentration curves separated by a rest period of 20 minutes, the antagonist is placed in contact with the isolated organ for 10 minutes and a new effect-concentration relationship is determined. In preliminary experiments, it was established that the second and third effect-concentration relation with the agonist are identical in the absence of antagonist.
To characterize the α1 blocking effect, the organ is stimulated by phenylephrine. Stimulation of the rat deferent canal produces a rapid contractile response (maximum contraction is obtained in 30 seconds). After a rest period of 30 minutes, increasing concentrations of phenylephrine are added in the organ cell over 30 seconds. A first effect-concentration relationship is established. After a washing and a new rest period of 15 mins. wherein the organ returns to the initial tension, a second effect-concentration relationship is effected. The antagonist is placed in contact with the tissue returned to its base tension after washing and a third effect-concentration relationship is determined. In preliminary experiments, it was established that the second and third effect-concentration relationship of the agonist are identical in the absence of antagonist. […] The apparent dissociation constant (KD), calculated according to Furchgott, is the relation between the molar concentration of antagonist and the relation of equiactive doses of agonist (in the presence and absence of antagonist) -1.
The effect (inhibition of the contractile response) is expressed as a percentage of the maximum effect.

In assay [10] the test system is α1 receptors. Particulars: statement in words, background; cited from earlier work.

A word on the Ki: it is a measure of affinity in units of concentration, obtained from inhibition or displacement. Regarding `Nc1cc(Cl)ccc1CN1CCc2ccccc2C1` [ISK25, 2-(2-amino-4-chlorobenzyl)-1,2,3,4-tetrahydroisoquinoline], the Ki was above 30000 nM in assay [1] and 1400 ± 375 nM in assay [2].

Take `COc1cc2c(cc1OC)CN(Cc1ccccc1N)CC2` [ISK17, 2-(2-aminobenzyl)-6,7-dimethoxy-1,2,3,4-tetrahydroisoquinoline]: the Ki in [1] turned out to be 3400 ± 300 nM; in assay [2] it was 1700 ± 300 nM.

For the molecule `COc1cc2nc(N3CCN(C(=O)c4ccco4)CC3)nc(N)c2cc1OC` [Prazosine [^3 H], reference compound], the Kd in assay [1] (read-out: KD of Prazosine [^3 H], radioligand) was 0.14 nM.

As usually defined, the Kb is the affinity of an antagonist, worked out from how it opposes an agonist. A higher Kb goes with lower antagonist affinity. Consider `COc1ccc2c(c1)CCN(Cc1cc(OC)c(OC)cc1N)C2` [ISK7, 2-(2-amino-4,5-dimethoxybenzyl)-6-methoxy-1,2,3,4-tetrahydroisoquinoline], for which the Ki amounted to 990 ± 50 nM in assay [1] and 63 ± 20 nM in [2]. Moreover, the “affinity for the binding sites of [^3 H] dexetimide” value in [3] was “no affinity”. In addition, the “affinity for the binding sites of [^3 H] ketanserine” value in [4] is recorded as “no affinity”. The “affinity for the binding sites of [^3 H] pyrilamine” value in assay [5] is “no affinity”. For the same molecule, the “affinity for the binding sites of [^3 H] nitrendipine” value in [6] was “no affinity”. The Kd in assay [7] (according to Furchgott, competitive antagonism, two concentrations (10^-7 and 10^-6), read-out: apparent dissociation constant (antagonism of BHT 920, rat aorta)) was 120 nM; in assay [8] (read-out: log of KD, antagonism with phenylephrine (pA2 cannot be calculated) (converted)), 2880 nM. Also, the pA2 on aorta in assay [7] (antagonism with BHT 920) amounted to 6.9. Also, the “effect on effect-concentration curve of BHT 920” value in [7] (rat aorta, 10 minutes contact) was “shift to the right of the effect-concentration curve of the agonist, without depression of the maximum”. For the same molecule, the “effect on effect-concentration curves of phenylephrine” value in assay [8] was “shifted toward the right without depression of the maximum”. Also, the “slope of Schild relation, antagonism with phenylephrine” value (from here on “slope … with phenylephrine”) in assay [8] was “very different than 1”. In addition, the “inhibition of the effect of phenylephrine relative to clonidine” value in assay [8] (α1 versus α2, rat deferent canal) is “only at concentrations very significantly higher than the concentrations at which it competitively inhibits the effect of α2 selective agonist, clonidine”. Further, in assay [9], the Kb was 200 nM. Also, the “effect on effect-concentration curves of clonidine” value in assay [9] (FIG. 2, ISK7 100-3000 nM, prazosine 1000-10,000 nM, yohimbine 30-1000 nM) is on record as “shift toward the right of the effect-concentration curves of agonist without diminution of the maximum effect”. Besides, the “antagonist selectivity on isolated rat deferent canal” value in assay [9] (clonidine (α2) versus phenylephrine (α1)) is listed as “selective, α2 type adrenergic antagonist”. Also, the “slope of Schild relation, antagonism with clonidine” value in assay [9] (rat deferent canal, electric stimulation) came out at 1.05.

Consider `COc1cc(N)c(CN2CCc3ccccc3C2)cc1OC` [ISK18, 2-(2-amino-4,5-dimethoxybenzyl)-1,2,3,4-tetrahydroisoquinoline], for which the Ki in assay [1] turned out to be 3220 ± 70 nM; in assay [2], 220 ± 75 nM.

Take `O=[N+]([O-])c1cc(Cl)ccc1CN1CCc2ccccc2C1` [ISK24, 2-(2-nitro-4-chlorobenzyl)-1,2,3,4-tetrahydroisoquinoline]: the Ki was above 30000 nM in [1] and 2740 ± 1020 nM in assay [2].

Take `COc1cc2nc(N3CCN(C(=O)c4ccco4)CC3)nc(N)c2cc1OC` [Prazosine, reference compound]: in assay [8], the “effect on effect-concentration curves of phenylephrine” value is recorded as “shifted toward the right without depression of the maximum” and the “slope … with phenylephrine” value worked out at 0.99.

As for `CNc1cc(OC)c(OC)cc1CN1CCc2cc(OC)c(OC)cc2C1` [ISK23, 2-(2-methylamino-4,5-dimethoxybenzyl)-6,7-dimethoxy-1,2,3,4-tetrahydroisoquinoline], the Ki in assay [1] was above 10000 nM; in [2], 2670 ± 400 nM.

Regarding `COC(=O)[C@@H]1[C@H]2C[C@H]3c4[nH]c5ccccc5c4CCN3C[C@@H]2CC[C@@H]1O` [Yohimbine, reference compound], in [1], the Ki was determined as 350 ± 30 nM. In addition, in assay [8], the “effect on effect-concentration curves of phenylephrine” value was “shifted toward the right without depression of the maximum” and the “slope … with phenylephrine” value turned out to be 0.85. Further, the “affinity for α1 receptors” value in [10] is recorded as “only slight affinity”. Also, in assay [9], the “effect on effect-concentration curves of clonidine” value was “shift toward the right of the effect-concentration curves of agonist without diminution of the maximum effect” and the “slope of Schild relation, antagonism with clonidine” value was 1.15.

Turning to `COc1ccc2c(c1)CCN(Cc1ccc(Cl)cc1N)C2` [ISK31, 2-(2-amino-4-chlorobenzyl)-6-methoxy-1,2,3,4-tetrahydroisoquinoline], the Ki in [1] is 1800 ± 330 nM; in [2] it was 155 ± 35 nM.

In the case of `COc1cc(N)c(CN2CCc3cc(OC)c(OC)cc3C2)cc1OC` [ISK4, 2-(2-amino-4,5-dimethoxybenzyl)-6,7-dimethoxy-1,2,3,4-tetrahydroisoquinoline], the Ki came to 2900 ± 400 nM in assay [1] and 810 ± 110 nM in assay [2].
